Measurements reported in publication PMC2774819 (Chemistry & biology, 2008).
Where two headings read alike, the source gives them in different places. Blank lines part the entries; values can stand above or below the molecule they belong to.

What was measured:
MycCI = biological target: T1, MycCI (Micromonospora griseorubida, UniProt Q83WF5); assay: spectral substrate binding assay
T1 sequence (Q83WF5 1-388): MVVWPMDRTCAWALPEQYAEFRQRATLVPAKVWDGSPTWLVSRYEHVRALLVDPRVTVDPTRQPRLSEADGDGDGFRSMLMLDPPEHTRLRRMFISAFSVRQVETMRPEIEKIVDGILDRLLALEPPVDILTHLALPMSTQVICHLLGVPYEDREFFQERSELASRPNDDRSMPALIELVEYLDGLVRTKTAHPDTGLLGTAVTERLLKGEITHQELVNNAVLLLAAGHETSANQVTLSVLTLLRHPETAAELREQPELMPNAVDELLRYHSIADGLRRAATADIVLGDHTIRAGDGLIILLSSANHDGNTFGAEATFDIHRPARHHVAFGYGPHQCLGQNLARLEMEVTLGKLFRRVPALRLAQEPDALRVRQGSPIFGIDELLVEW

[1] = biological target: MycCI cytochrome P450, C-terminal 6 x His tagged (Micromonospora griseorubida) (UniProt Q83WF5); assay: spectral ferredoxin titration
MycG [2] = biological target: T2, MycG (Micromonospora griseorubida, UniProt Q59523); assay: spectral substrate binding assay
T2 sequence (Q59523 1-397): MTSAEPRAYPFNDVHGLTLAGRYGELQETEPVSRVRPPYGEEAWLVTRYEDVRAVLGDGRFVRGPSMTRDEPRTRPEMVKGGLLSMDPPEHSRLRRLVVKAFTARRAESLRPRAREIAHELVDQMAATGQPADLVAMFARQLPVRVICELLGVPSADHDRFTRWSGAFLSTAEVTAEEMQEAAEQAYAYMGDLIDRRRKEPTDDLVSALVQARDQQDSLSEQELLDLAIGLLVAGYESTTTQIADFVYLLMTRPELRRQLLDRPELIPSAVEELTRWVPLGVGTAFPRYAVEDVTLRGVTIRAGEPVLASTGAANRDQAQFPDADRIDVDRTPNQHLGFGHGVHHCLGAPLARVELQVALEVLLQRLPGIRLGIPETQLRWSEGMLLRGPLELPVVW

MycG [3] = biological target: T2, MycG; assay: spectral substrate binding assay; remark: listed apart in the source
[4] = biological target: T3, MycCI cytochrome P450, C-terminal 6 x His tagged (Micromonospora griseorubida, UniProt Q83WF5 1-388); assay: spectral ferredoxin titration
T3 sequence (looked up): T1 sequence (Q83WF5 1-388)

Kd (MycCI): 28.1 ± 3.2 µM
Molecule: CC[C@H]1OC(=O)/C=C/[C@@H](C)[C@H](O[C@H]2O[C@@H](C)C[C@@H](N(C)C)[C@@H]2O)[C@H](C)C[C@@H](C)C(=O)/C=C\C=C\[C@H]1C [M-VIII, mycinamicin VIII]

Kd [1]: 149 µM
Molecule: spinach ferredoxin (from UniProt P00221 51-147) (natural protein)

Kd (MycG [2]): 0.7 ± 0.1 µM
Molecule: CC[C@H]1OC(=O)/C=C/[C@H](C)[C@@H](O[C@@H]2O[C@H](C)C[C@H](N(C)C)[C@H]2O)[C@@H](C)C[C@@H](C)C(=O)/C=C/C=C/[C@@H]1CO[C@@H]1O[C@H](C)[C@@H](O)[C@@H](OC)[C@H]1OC [M-IV, mycinamicin IV]

Kd (MycG [2]): 71.5 ± 8.4 µM
Molecule: CC[C@H]1OC(=O)/C=C/[C@H](C)[C@@H](O[C@@H]2O[C@H](C)C[C@H](N(C)C)[C@H]2O)[C@@H](C)C[C@@H](C)C(=O)/C=C/[C@H]2O[C@@H]2[C@]1(O)CO[C@@H]1O[C@H](C)[C@@H](O)[C@@H](OC)[C@H]1OC [M-II, mycinamicin II]

Kd (MycG [3]): 10.4 ± 0.2 µM
Molecule: CC[C@H]1OC(=O)/C=C/[C@H](C)[C@@H](O[C@@H]2O[C@H](C)C[C@H](N(C)C)[C@H]2O)[C@@H](C)C[C@@H](C)C(=O)/C=C/C=C/[C@]1(O)CO[C@@H]1O[C@H](C)[C@@H](O)[C@@H](OC)[C@H]1OC [M-V, mycinamicin V]

Kd [4]: 7 ± 0.1 µM
B1: N-terminal 6 x His-tagged ferredoxin MycCII (natural protein, Micromonospora griseorubida, UniProt Q83WF4 1-74, looked up)
chain: MRIVLDAERCVGAGQCEATAPELFTQGDDGLGLVRDRPVTPELLGPAREAVDRCPVRAIRIESSVRTGWARGAG
